How the values were obtained:
[1] = target: T1, calcium sensing receptor as found in the human parathyroid gland (Homo sapiens, UniProt P41180); experiment: calcium mobilization fluorescence (FLIPR) assay, agonist mode; format: cell-based; conditions: transfected HEK 293 cells; 1 mM calcium standard; Tables 2-7; read-out: In Vitro: CS50, where potency is at 50% of the calcium standard potency
T1 construct: expressed in transfected cells; host or cells: HEK 293
T1 sequence (P41180 20-1078): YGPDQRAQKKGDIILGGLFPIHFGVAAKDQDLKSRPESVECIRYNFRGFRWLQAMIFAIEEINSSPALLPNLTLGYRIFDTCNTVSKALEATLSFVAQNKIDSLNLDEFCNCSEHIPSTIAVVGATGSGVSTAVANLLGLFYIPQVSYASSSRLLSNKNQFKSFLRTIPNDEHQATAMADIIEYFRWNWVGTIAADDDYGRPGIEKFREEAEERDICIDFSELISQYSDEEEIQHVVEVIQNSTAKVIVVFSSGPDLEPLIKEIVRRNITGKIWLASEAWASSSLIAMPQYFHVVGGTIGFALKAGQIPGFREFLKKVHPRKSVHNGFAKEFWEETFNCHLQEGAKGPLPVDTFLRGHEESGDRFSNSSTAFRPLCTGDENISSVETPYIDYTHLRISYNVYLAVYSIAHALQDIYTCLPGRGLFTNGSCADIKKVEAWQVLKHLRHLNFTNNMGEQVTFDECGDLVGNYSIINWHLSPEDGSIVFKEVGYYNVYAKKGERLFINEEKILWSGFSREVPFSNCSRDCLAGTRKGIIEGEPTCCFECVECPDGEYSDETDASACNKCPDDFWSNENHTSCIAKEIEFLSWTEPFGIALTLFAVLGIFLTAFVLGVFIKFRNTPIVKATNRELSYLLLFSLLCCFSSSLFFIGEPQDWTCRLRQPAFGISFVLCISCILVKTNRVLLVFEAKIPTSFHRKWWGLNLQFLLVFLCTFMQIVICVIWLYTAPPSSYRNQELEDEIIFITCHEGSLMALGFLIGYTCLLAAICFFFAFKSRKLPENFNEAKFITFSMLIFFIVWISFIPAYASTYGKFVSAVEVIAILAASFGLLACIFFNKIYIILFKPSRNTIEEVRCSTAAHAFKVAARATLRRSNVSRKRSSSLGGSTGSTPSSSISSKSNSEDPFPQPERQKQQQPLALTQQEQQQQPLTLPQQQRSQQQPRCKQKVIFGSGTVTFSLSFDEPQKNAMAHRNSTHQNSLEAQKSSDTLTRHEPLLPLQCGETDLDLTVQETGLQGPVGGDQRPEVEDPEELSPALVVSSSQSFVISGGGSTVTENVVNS
Protocol: (§1) In vitro potency is measured via calcium mobilization in a fluorescence assay using HEK 293 cells transfected to express the same calcium sensing receptor as found in the human parathyroid gland. In this assay calcium-sensing receptor agonists and antagonists are detected. The assay is conducted in a 96-well plate format with the use of FLIPR (fluorescent imaging plate reader; Molecular Devices, Sunnyvale, Calif.). The HEK 293 cell media is replaced with the fluorescence dye FLUO-3AM and Pluronic detergent in FLIPR assay buffer. Cells are incubated 60 min (in the dark, at room temperature), then washed with assay buffer and placed in FLIPR. Images are collected by FLIPR in the absence of test compound, then in the presence of test compound (at 25 µM) and then after addition of a calcium challenge (at 1 mM). In the agonist assay the difference between maximum and minimum fluorescence values is measured following test compound addition. Hits have a change in fluorescence greater than or equal to 50% of that seen with a 1 mM calcium standard. In the antagonist assay the difference between maximum and minimum fluorescence values is measured following the calcium challenge addition. When compared to challenge in the absence of test compound, hits reduce fluorescence by at least 50%. In vivo activity is measured via parathyroid hormone (PTH) supression by test compounds in a rat model. Compound is administered orally using 0.5% Tween 80 in distilled water as vehicle, with a volume of approximately 10 mL/kg body weight. Blood samples are taken at 15 minutes (and 4 h if required) post oral dosing. Serum PTH levels are determined with an immunoradiometric assay.
(§2) Not all compounds were tested in each of the screens. […] Each entry represents a mixture of cis and trans cyclopropanes (R,S; S,R; R,R; S,S) with R absolute configuration when R^3=CH3. Table 2 lists compounds that are trans at the cyclopropane (R,R; S,S) with R absolute configuration at the benzylamine position, or without stereochemistry at the benzylamine. Table 3 lists compounds with R,R absolute stereochemistry at the cyclopropane and a mixture of stereochemistry at the benzylamine position. 20. In vitro data in Table 1 is percent activation of the calcium-sensing receptor versus baseline. In vitro data in Tables 2-7 is expressed as a CS50, where potency is at 50% of the calcium standard potency, and the unit is μM. In vivo data represents % blood serum PTH vs. vehicle at 30 mg/kg test compound, levels measured after 15 minutes.

[2] = tested on: parathyroid hormone (PTH); experiment: parathyroid hormone (PTH) suppression in a rat model; format: in vivo; conditions: 30 mg/kg test compound, levels measured after 15 minutes; for change in vivo at 30 mg/kg: Rattus norvegicus, po, 0.25 h, read-out: In Vivo: % blood serum PTH vs. vehicle; for In Vivo: % blood serum PTH vs. vehicle: oral, 30 mg/kg
Protocol: as §1, §2

Structure (SMILES) | EC50 [1] | change in vivo at 30 mg/kg [2] | In Vivo: % blood serum PTH vs. vehicle [2]
CC(NC[C@@H]1C[C@H]1c1ccccc1)c1cccc(F)c1 (some centres unmarked) [Compound 45] | > 25 µM | -19.6% | 
c1ccc([C@@H]2C[C@H]2CNCc2ccncc2)cc1 (relative stereo) [Compound 30] | > 25 µM | 70.1% | 
COc1cccc([C@@H](C)NCC2CC2c2ccccc2C)c1 (some centres unmarked) [Compound 12] | 8.8 µM | -95.8% | 
COc1cccc([C@@H](C)NC[C@H]2C[C@H]2c2ccccc2)c1 [Compound 62] | 17.6 µM | 0% | 
COc1cccc([C@H](C)NC[C@H]2C[C@@H]2c2ccccc2)c1 [Compound 64] | > 25 µM | -11.7% | 
COc1cccc([C@@H](C)NCC2CC2c2ccccc2F)c1 (some centres unmarked) [Compound 17] | 5 µM | -94.8% | 
COc1cccc([C@H](C)NC[C@@H]2C[C@@H]2c2ccccc2)c1 [Compound 66] | > 25 µM | -61.8% | 
COc1cccc([C@@H](C)NCC2C(C)C2c2ccccc2)c1 (some centres unmarked) [Compound 67] | 10.1 µM | -92.9% | 
COc1cccc([C@@H](C)NCC2CC2c2ccccc2F)c1 (single isomer, unassigned) [Compound 19] | 9.6 µM |  | -89.2%
COc1cccc([C@H](C)NC[C@@H]2C[C@H]2c2ccccc2)c1 [Compound 63] | > 25 µM | -40.1% | 
COc1cccc([C@@H](C)N(C[C@@H]2C[C@H]2c2ccccc2)C(=O)CNC(=O)OC(C)(C)C)c1 [Compound 58] | > 25 µM | -12.7% | 
COc1cccc([C@@H](C)NCC2CC2c2ccc(C(F)(F)F)cc2)c1 (some centres unmarked) [Compound 16] | > 25 µM | -14.4% | 
CC(NC[C@@H]1C[C@H]1c1ccccc1)c1cccc(Cl)c1 (stereo partly drawn) [Compound 46, N-((R,R)-2-phenylcyclopropanylmethyl)-1-(3-chlorophenyl)ethylamine] | > 25 µM | -15.9% | 
COc1cccc([C@@H](C)NC[C@@H]2C[C@@H]2c2ccccc2)c1 [Compound 61] | 11.2 µM | 0% | 
Cc1cccc(C(C)NC[C@@H]2C[C@H]2c2ccccc2)c1 (some centres unmarked) [Compound 40] | > 25 µM | -51.2% | 
c1ccc([C@@H]2C[C@H]2CNCc2ccccn2)cc1 (relative stereo) [Compound 28] | > 25 µM | 72% | 
COc1cccc([C@@H](C)NC[C@@H]2C[C@H]2c2ccccc2)c1 [Compound 49, N-((R,R)-2-phenylcyclopropanylmethyl)-1-(R)-(3-methoxyphenyl)ethylamine] | 5 µM | -83.6% | 
COc1cccc([C@@H](C)NC[C@H]2C[C@@H]2c2ccccc2)c1 [Compound 60] | 12.9 µM | -42.1% | 
CC(NC[C@@H]1C[C@H]1c1ccccc1)c1ccc2c(c1)OCO2 (some centres unmarked) [Compound 47] | > 25 µM | -67.3% | 
C[C@@H](NC[C@@H]1C[C@H]1c1ccccc1)c1cccc(O)c1 [Compound 48] | 8.7 µM | -41.7% | 
COc1cccc([C@@H](C)NCC2CC2c2cc(C)ccc2C)c1 (some centres unmarked) [Compound 33] | > 25 µM |  | -47.6%
COc1cccc([C@@H](C)NCC2CC2c2cc(C)ccc2C)c1 (some centres unmarked) [Compound 32] | 12.4 µM |  | -13.5%
CCC(=O)N(C[C@@H]1C[C@H]1c1ccccc1)[C@H](C)c1cccc(OC)c1 [Compound 54] | > 25 µM | -33.7% | 
COc1cccc([C@@H](C)NCC2CC2c2ccc(F)cc2)c1 (some centres unmarked) [Compound 23] | 13.5 µM | -55% | 
CC(NC[C@@H]1C[C@H]1c1ccccc1)c1cccc(C(F)(F)F)c1 (some centres unmarked) [Compound 41] | > 25 µM | -21.4% | 
